The subject of one data set is HCT-116 and SW620 cells. The experiment in a line: Expression of apoptosis-related proteins by immunoblotting. It counts as cell-based, human. As to conditions: colon carcinoma cells, 10 μM. On the procedure: (§1) Induction of apoptosis in human colon cancer HCT-116 cell line by Compound 3 (FIG. 8A). The induction of apoptosis was quantitated as the percentage of cells in the sub-G1 region (hypodiplody) of cell cycle analysis. Briefly, cells (5×10^5) were centrifuged and fixed overnight in 70% ethanol at 4° C. Cells were washed 3 times with PBS, incubated for 1 h with 1 mg/ml RNaseA and 20 μg/ml propidium iodide at room temperature, and then analyzed for cell cycle with a Becton Dickinson FACSCalibur flow cytometer (San Jose, Calif.). HCT-116 cells were incubated for the indicated times with 10 μM Compound 3, and apoptosis was then quantitated as percentage of cells in the sub-G1 region in cell cycle analysis by flow cytometry. The position of the sub-G1 peak (hypodiploidy), integrated by apoptotic cells, as well as the G0/G1 and G2/M peaks are indicated by arrows. Untreated control cells were run in parallel. The percentage of cells with a DNA content less than G1 (sub-G1) is indicated in each histogram. The experiment shown is representative of three performed Expression of different apoptosis-related proteins during Compound 3 treatment (FIG. 8B), HCT-116 and SW620 cells were treated with 10 μM Compound 3 for the indicated times and analyzed by immunoblotting with specific antibodies for the indicated proteins. The migration positions of the different proteins are indicated. β-actin was used as a loading control. Data shown are representative of three experiments performed. About 10^7 cells were pelleted by centrifugation, washed with PBS, and lysed. […]

In the next data set the test system is resting human PBLs. The experiment in a line: Apoptosis of resting human PBLs. It counts as cell-based. Here is the method: To isolate normal peripheral blood lymphocytes (PBLs), mononuclear cells were obtained from fresh human peripheral blood from healthy volunteers by centrifugation on Ficoll-Hypaque density gradients, washed with phosphate-buffered saline (PBS), and resuspended in RPMI-1640 medium containing 10% (v/v) heat-inactivated FBS, 2 mM L-glutamine, 100 U/ml penicillin, and 100 μg/ml streptomycin as described (Cabaner et al. Br. J. Pharmacol 127:813-825.1999). Monocytes were depleted by culture dish adherence after overnight incubation. Nonadherent cells (lymphocytes) were washed with PBS and collected. PBL preparations were typically 70-75% CD3^+, 24-29% CD 19^+, and less than 0.4% CD 14^+.

A short description of data set [1]: Cytotoxicity for human non-tumoral cells, XTT. It counts as cell-based. The conditions noted are these: HUVEC cells (primary, from human cords). On the procedure: The cytotoxicity of the compounds for human non-tumoral cells was studied in fibroblasts, HUVEC cells and resting PBLs (Peripheral Blood lymphocytes).
HUVEC cells were obtained by treating human cords with collagenase type I, […] in Hank's medium incubating 20 minutes at 37° C. Cells were collected afterwards and cultivated in medium M199 with supplements of 20% FBS, 1% P/S and 25 mg/500 ml of medium ECGF, Cells were grown on a 0.2% gelatin matrix.
Distinct amounts of exponentially growing cells were seeded in 96-well flat-bottomed microtiter plates in a final volume of 100 μl were seeded in 96-well flat-bottomed microtiter plates, and incubated at 37° C. in a humidified atmosphere of 5% CO2/95% air for 24 h to allow the cells attach to the plates. Then, cells were incubated with different concentrations of the assayed compound at 37° C. under the 5% CO2/95% air atmosphere for 72 h. Cell proliferation was quantified using the XTT cell proliferation kit (Roche Molecular Biochemicals, Mannheim, Germany) following the manufacturer's instructions. Briefly, a freshly prepared mixture solution (50 μl) of XTT labelling reagent and PMS (N-methyldibenzopyrazine methyl sulfate) electron coupling reagent was added to each well. The resulting mixtures were further incubated for 4 h in a humidified atmosphere (37° C., 5% CO2), and the absorbance of the formazan product generated was measured with a microtiter plate reader at a test wavelength of 490 nm and a reference wavelength of 655 nm. The IC50 (50% inhibitory concentration) was then calculated as the drug concentration causing a 50% inhibition of cell proliferation. Data are shown as mean values of four independent experiments each performed in triplicate.

The test system of data set [2] is colorectal cancer cells from patients with Kras mutation. The experiment in a line: Mutated Kras colon cancer orthotopic animal model. The class given is in vivo, mice. The conditions noted are these: compared with vehicle control, FIG. 4A. Here is the method: Using an animal model based on colorectal cancer cells from patients with Kras mutation, implanted on mice in the colon area (Yao, M. Cyclooxygenase-2 selective inhibition with NS-398 suppresses proliferation and invasiveness and delays liver metastasis in colorectal cancer. Br. J. Cancer, 2004 Feb. 9; 90(3):712-9), the effects of Compound 3 were tested.

The test system of the next data set is SW620. The experiment in a line: Apoptosis, sub-G1 peak and caspase activation. It counts as cell-based, human. As to conditions: SW620, 10 μM. On the procedure:
as §1, with “proteins.” for “proteins. The migration positions of the different proteins are indicated. β-actin was used as a loading control. Data shown are representative of three experiments performed. About 10^7 cells were pelleted by centrifugation, washed with PBS, and lysed.”

The subject of another data set is HCT-116. The experiment in a line: Apoptosis, sub-G1 peak and caspase activation. The class given is cell-based, human. As to conditions: HCT-116, 10 μM. On the procedure: as §1, with “proteins.” for “proteins. The migration positions of the different proteins are indicated. β-actin was used as a loading control. Data shown are representative of three experiments performed. About 10^7 cells were pelleted by centrifugation, washed with PBS, and lysed.”

In the next data set the test system is EHEB cells. The experiment in a line: Expression of proteins by immunoblotting in EHEB cells. The class given is cell-based, human. As to conditions: 10 μM. On the procedure:
Expression of different proteins in Compound 3-treated EHEB cells (FIG. 7B). Cells were treated with 10 μM Compound 3 for the indicated times and analyzed by immunoblotting with specific antibodies for the indicated proteins. The migration positions of the different proteins are indicated. β-actin was used as a loading control. Data shown are representative of three experiments performed.

The subject of data set [3] is haematological cancer cell lines. The experiment in a line: Apoptosis induction in haematological cancer cell lines. It counts as cell-based.

`Fc1ccc(CNCCCC=C(c2ccccc2)c2ccccc2)cc1` [Compound 3, (5,5-diphenyl-pent-4-enyl)-(4-fluoro-benzyl)-amine hydrocloride]: in the data set with HCT-116 and SW620 cells, the caspase-9 result is recorded as “induction”, the “expression of Mcl-1S” value is reported as “induced the expression” and the “protein level of p53” value is “increased”. Further, in the data set on resting human PBLs (10^−4 M), the “% Apoptosis PBLs” value came out at 7.5%. Also, the “% Apoptosis PBLs” value in the data set on resting human PBLs (10^−5 M) was found to be 1.3%. In addition, the “effect on PBLs” value in the data set with resting human PBLs (even at 10^−4 M) is given as “hardly affect PBLs”. Further, in data set [1], the IC50 at 72 h turned out to be 16 µM. The “tumour volume of human colorectal cancer” value in data set [2] is “clear reduction effect of the tumour volume”. For the same compound, in the data set on SW620, the “apoptosis (sub-G1 peak, caspase activation)” value is on record as “induces apoptosis”. Also, in the data set on HCT-116, the “apoptosis (sub-G1 peak, caspase activation)” value is on record as “induces apoptosis”. For the same compound, in the data set with EHEB cells, the caspase-3 result is listed as “activation” and the “cleavage of PARP” value was “rapid cleavage”. Further, in the data set on EHEB cells (EHEB cells), the Caspase-4 result is “activated”; the caspase-9 entry is on record as “activated”; the “induction of autophagy (LC3-II formation)” value was “very rapid and potent induction of autophagy”. Further, the “concentration inducing apoptosis in haematological cancer cell lines” value in data set [3] is on record as ~10^−6 M.

The values are drawn from US20130296346A1, “DIPHENYL-AMINE DERIVATIVES: USES, PROCESS OF SYNTHESIS AND PHARMACEUTICAL COMPOSITIONS” (Faes Farma, S.A., priority 2010, published 2013).
